Data reported in the supplement of paper PMC8671470.

Legend:
Conditions in all cases: 72 h
[1] = tested on: BV-173
Method in brief: (§1)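 For the IC50, dose–response curves were fitted with a log-logistic model. The data came from fifteen myeloid leukaemia cell lines grown in RPMI 1640 at densities in the linear growth range and incubated in 384-well plates for 72 h at 37 °C under 5% CO2. Doses were five tenfold steps from 1 to 10,000 nM in duplicate, and luminescent ATP viability was normalised to vehicle and to a positive control at 10 µM before four-parameter fitting.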

[2] = tested on: HEL
Method in brief: as §1

[3] = tested on: HL-60
Method in brief: as §1

[4] = tested on: K-562
Method in brief: as §1

[5] = tested on: KCL-22
Method in brief: as §1

[6] = tested on: KG-1
Method in brief: as §1

[7] = tested on: KU-812
Method in brief: as §1

[8] = tested on: LAMA-84
Method in brief: as §1

[9] = tested on: ML-2
Method in brief: as §1

[10] = tested on: MOLM-13
Method in brief: as §1

[11] = tested on: MV4-11
Method in brief: as §1

[12] = tested on: Mono-Mac-6
Method in brief: as §1

[13] = tested on: NOMO-1
Method in brief: as §1

[14] = tested on: SHI-1
Method in brief: as §1

[15] = tested on: THP-1
Method in brief: as §1

[16] = tested on: BV-173; experiment: cell viability (% survival relative to DMSO control, bortezomib = 0%); higher = less cytotoxic
Method in brief: (§2)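 In 384-well plates pre-printed with compounds at 1, 10, 100, 1000 or 10000 nM, duplicate wells received cells from 10 AML and 5 CML lines at densities within the linear growth range. The plates stayed at 37 °C with 5% CO2 for 72 h before CellTiter-Glo luminescence was recorded. Each entry is averaged percent survival. Scaling placed vehicle at 100% and a 10 µM positive control at 0%.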

[17] = tested on: HEL; experiment: as above
Method in brief: as §2

[18] = tested on: HL-60; experiment: as above
Method in brief: as §2

[19] = tested on: K-562; experiment: as above
Method in brief: as §2

[20] = tested on: KCL-22; experiment: as above
Method in brief: as §2

[21] = tested on: KG-1; experiment: as above
Method in brief: as §2

[22] = tested on: KU-812; experiment: as above
Method in brief: as §2

[23] = tested on: LAMA-84; experiment: as above
Method in brief: as §2

[24] = tested on: ML-2; experiment: as above
Method in brief: as §2

[25] = tested on: MOLM-13; experiment: as above
Method in brief: as §2

[26] = tested on: MV4-11; experiment: as above
Method in brief: as §2

[27] = tested on: Mono-Mac-6; experiment: as above
Method in brief: as §2

[28] = tested on: NOMO-1; experiment: as above
Method in brief: as §2

[29] = tested on: SHI-1; experiment: as above
Method in brief: as §2

[30] = tested on: THP-1; experiment: as above
Method in brief: as §2

CN(CCCOc1ccc(Cc2ccccc2)cc1)CCC(=O)O
Conditions	IC50 (cell viability) [µM]
[1]	> 10
[2]	> 10
[3]	> 10
[4]	> 10
[5]	> 10
[6]	> 10
[7]	> 10
[8]	> 10
[9]	> 10
[10]	> 10
[11]	> 10
[12]	> 10
[13]	> 10
[14]	> 10
[15]	> 10

cell viability [%]
Conditions	1 nM	10 nM	100 nM	1000 nM	10000 nM
[16]	96.8	98.4	100	99.4	95.8
[17]	107	113	102	129	110
[18]	99.9	102	120	191	115
[19]	103	107	98.1	112	104
[20]	106	103	94.8	116	110
[21]	94.1	110	104	108	92.6
[22]	99.9	105	90.9	106	94.2
[23]	110	119	95	98.2	91.9
[24]	105	97	103	113	107
[25]	119	122	91.9	133	79.1
[26]	99.1	97.6	96	125	87.8
[27]	106	90.1	101	107	89
[28]	106	107	95.1	106	101
[29]	106	102	116	115	110
[30]	104	103	96.1	98.4	102

Cc1c2c(=O)n(-c3ccccc3Cl)[nH]c2cc(=O)n1Cc1ccccn1
Conditions	IC50 (cell viability) [µM]
[1]	> 10
[2]	> 10
[3]	> 10
[4]	6.52
[5]	> 10
[6]	> 10
[7]	> 10
[8]	> 10
[9]	> 10
[10]	2.76
[11]	7.5
[12]	> 10
[13]	> 10
[14]	> 10
[15]	> 10

cell viability [%]
Conditions	1 nM	10 nM	100 nM	1000 nM	10000 nM
[16]	98	104	94.6	95.5	81.4
[17]	77.9	114	88.2	103	106
[18]	71	96.2	94.5	90.8	105
[19]	109	92.5	89.3	77.7	54
[20]	60.5	119	84.4	94.6	106
[21]	92.4	105	89.6	102	104
[22]	88	101	92	100	98.1
[23]	93.8	108	100	99.9	99.9
[24]	86.5	112	95.4	98.6	101
[25]	84.7	101	96.7	71.4	38.5
[26]	101	107	89.7	71.9	59.2
[27]	89	109	96	103	99.5
[28]	102	111	95.8	100	98.3
[29]	84.3	103	95.7	80.8	75.9
[30]	95.8	113	99.1	94.2	96.6
